Results from PubChem BioAssay AID1918955 (Molecular Pharmacology Branch, DTP, NCI, 2023).

Tested on: NCI/ADR-RES complex spheroid viability
Assay: Anticancer human tumor NCI/ADR-RES cell line growth inhibition;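 also: spheroids exposed to compounds for 7 days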;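 as to viability, T/C: 100% = DMSO vehicle treated spheroids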
Conditions: for IC50: curve of first compound; for viability, T/C: stronger effect = lower value
Method in brief: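 Multicellular complex spheroids of tumor cells with human endothelial cells (HUVEC) and mesenchymal stem cells; the LSD1 inhibitor iadademstat was combined with standard-of-care or investigational agents. Top concentration at or near clinical Cmax, half-log dilutions; final DMSO ≤0.25%.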

[1] = second compound 0.1 µM, first compound 0.00949 µM
[2] = second compound 0.1 µM, first compound 0.03 µM
[3] = second compound 0.1 µM, first compound 0.0949 µM
[4] = second compound 0.1 µM, first compound 0.3 µM
[5] = second compound 0.316 µM, first compound 0.00949 µM
[6] = second compound 0.316 µM, first compound 0.03 µM
[7] = second compound 0.316 µM, first compound 0.0949 µM
[8] = second compound 0.316 µM, first compound 0.3 µM
[9] = second compound 1 µM, first compound 0.00949 µM
[10] = second compound 1 µM, first compound 0.03 µM
[11] = second compound 1 µM, first compound 0.0949 µM
[12] = second compound 1 µM, first compound 0.3 µM
[13] = second compound 3.16 µM, first compound 0.00949 µM
[14] = second compound 3.16 µM, first compound 0.03 µM
[15] = second compound 3.16 µM, first compound 0.0949 µM
[16] = second compound 3.16 µM, first compound 0.3 µM
[17] = second compound 10 µM, first compound 0.00949 µM
[18] = second compound 10 µM, first compound 0.03 µM
[19] = second compound 10 µM, first compound 0.0949 µM
[20] = second compound 10 µM, first compound 0.3 µM

SMILES: CCc1c2c(nc3ccc(O)cc13)-c1cc3c(c(=O)n1C2)COC(=O)[C@]3(O)CC + NC1CCC(NC2CC2c2ccccc2)CC1
- IC50 (second compound 0.1 µM): < 0.949 nM
- IC50 (second compound 0.316 µM): < 0.949 nM
- IC50 (second compound 1 µM): < 0.949 nM
- IC50 (second compound 3.16 µM): < 0.949 nM
- IC50 (second compound 10 µM): < 0.949 nM
- viability, T/C (second compound 0.1 µM, first compound 0.000949 µM): 5.27%
- viability, T/C (second compound 0.1 µM, first compound 0.003 µM): 2.59%
- viability, T/C [1]: 0.6%
- viability, T/C [2]: 1.16%
- viability, T/C [3]: 1.11%
- viability, T/C [4]: 3.88%
- viability, T/C (second compound 0.316 µM, first compound 0.000949 µM): 2.94%
- viability, T/C (second compound 0.316 µM, first compound 0.003 µM): 1.44%
- viability, T/C [5]: 1.36%
- viability, T/C [6]: 2.53%
- viability, T/C [7]: 0.44%
- viability, T/C [8]: 0.37%
- viability, T/C (second compound 1 µM, first compound 0.000949 µM): 6.45%
- viability, T/C (second compound 1 µM, first compound 0.003 µM): 1.09%
- viability, T/C [9]: 1.09%
- viability, T/C [10]: 1.03%
- viability, T/C [11]: 0.47%
- viability, T/C [12]: 0.58%
- viability, T/C (second compound 3.16 µM, first compound 0.000949 µM): 2.6%
- viability, T/C (second compound 3.16 µM, first compound 0.003 µM): 1.07%
- viability, T/C [13]: 0.88%
- viability, T/C [14]: 0.53%
- viability, T/C [15]: 1.24%
- viability, T/C [16]: 2.59%
- viability, T/C (second compound 10 µM, first compound 0.000949 µM): 4.02%
- viability, T/C (second compound 10 µM, first compound 0.003 µM): 1.26%
- viability, T/C [17]: 0.71%
- viability, T/C [18]: 0.53%
- viability, T/C [19]: 0.22%
- viability, T/C [20]: 4.32%

SMILES: Nc1ccccc1NC(=O)c1ccc(CNC(=O)OCc2cccnc2)cc1 + NC1CCC(NC2CC2c2ccccc2)CC1
- IC50 (second compound 0.1 µM): 1170 nM
- IC50 (second compound 0.316 µM): 1340 nM
- IC50 (second compound 1 µM): 1270 nM
- IC50 (second compound 3.16 µM): 979 nM
- IC50 (second compound 10 µM): 622 nM
- viability, T/C [1]: 106%
- viability, T/C [2]: 96.8%
- viability, T/C [3]: 93.4%
- viability, T/C [4]: 80.8%
- viability, T/C (second compound 0.1 µM, first compound 0.949 µM): 52.6%
- viability, T/C (second compound 0.1 µM, first compound 3 µM): 32.7%
- viability, T/C [5]: 110%
- viability, T/C [6]: 98.6%
- viability, T/C [7]: 96.8%
- viability, T/C [8]: 93.8%
- viability, T/C (second compound 0.316 µM, first compound 0.949 µM): 57.9%
- viability, T/C (second compound 0.316 µM, first compound 3 µM): 30.5%
- viability, T/C [9]: 106%
- viability, T/C [10]: 100%
- viability, T/C [11]: 97.6%
- viability, T/C [12]: 76.5%
- viability, T/C (second compound 1 µM, first compound 0.949 µM): 56.8%
- viability, T/C (second compound 1 µM, first compound 3 µM): 32.9%
- viability, T/C [13]: 102%
- viability, T/C [14]: 100%
- viability, T/C [15]: 93%
- viability, T/C [16]: 79.6%
- viability, T/C (second compound 3.16 µM, first compound 0.949 µM): 49.8%
- viability, T/C (second compound 3.16 µM, first compound 3 µM): 30.7%
- viability, T/C [17]: 95.1%
- viability, T/C [18]: 79.8%
- viability, T/C [19]: 72.7%
- viability, T/C [20]: 65.5%
- viability, T/C (second compound 10 µM, first compound 0.949 µM): 42.4%
- viability, T/C (second compound 10 µM, first compound 3 µM): 22.2%

SMILES: O=C(c1cc(Cc2n[nH]c(=O)c3ccccc23)ccc1F)N1CCN(C(=O)C2CC2)CC1 + NC1CCC(NC2CC2c2ccccc2)CC1
- IC50 (second compound 0.1 µM): > 10000 nM
- IC50 (second compound 0.316 µM): > 10000 nM
- IC50 (second compound 1 µM): > 10000 nM
- IC50 (second compound 3.16 µM): > 10000 nM
- IC50 (second compound 10 µM): > 10000 nM
- viability, T/C (second compound 0.1 µM, first compound 0.0316 µM): 99.8%
- viability, T/C (second compound 0.1 µM, first compound 0.1 µM): 97.5%
- viability, T/C (second compound 0.1 µM, first compound 0.316 µM): 104%
- viability, T/C (second compound 0.1 µM, first compound 1 µM): 102%
- viability, T/C (second compound 0.1 µM, first compound 3.16 µM): 102%
- viability, T/C (second compound 0.1 µM, first compound 10 µM): 87.6%
- viability, T/C (second compound 0.316 µM, first compound 0.0316 µM): 109%
- viability, T/C (second compound 0.316 µM, first compound 0.1 µM): 101%
- viability, T/C (second compound 0.316 µM, first compound 0.316 µM): 105%
- viability, T/C (second compound 0.316 µM, first compound 1 µM): 111%
- viability, T/C (second compound 0.316 µM, first compound 3.16 µM): 96.2%
- viability, T/C (second compound 0.316 µM, first compound 10 µM): 101%
- viability, T/C (second compound 1 µM, first compound 0.0316 µM): 100%
- viability, T/C (second compound 1 µM, first compound 0.1 µM): 108%
- viability, T/C (second compound 1 µM, first compound 0.316 µM): 112%
- viability, T/C (second compound 1 µM, first compound 1 µM): 107%
- viability, T/C (second compound 1 µM, first compound 3.16 µM): 105%
- viability, T/C (second compound 1 µM, first compound 10 µM): 91.5%
- viability, T/C (second compound 3.16 µM, first compound 0.0316 µM): 99.1%
- viability, T/C (second compound 3.16 µM, first compound 0.1 µM): 102%
- viability, T/C (second compound 3.16 µM, first compound 0.316 µM): 97.4%
- viability, T/C (second compound 3.16 µM, first compound 1 µM): 96%
- viability, T/C (second compound 3.16 µM, first compound 3.16 µM): 104%
- viability, T/C (second compound 3.16 µM, first compound 10 µM): 87.3%
- viability, T/C (second compound 10 µM, first compound 0.0316 µM): 94.8%
- viability, T/C (second compound 10 µM, first compound 0.1 µM): 97.4%
- viability, T/C (second compound 10 µM, first compound 0.316 µM): 93.1%
- viability, T/C (second compound 10 µM, first compound 1 µM): 88.8%
- viability, T/C (second compound 10 µM, first compound 3.16 µM): 92.5%
- viability, T/C (second compound 10 µM, first compound 10 µM): 91.7%
